US20250009745A1, “CDK INHIBITOR” (SHANGHAI QILU PHARMACEUTICAL RESEARCH AND DEVELOPMENT …, priority 2021, published 2025)

Key:
Experiment in all cases: CDK enzymology experiment in vitro, capillary mobility shift assay (MSA)
Assay type in all cases: biochemical
CDK1 = target: T1, CDK1 (Homo sapiens, UniProt P06493); details: read-out: CDK1 (nM) inhibitory IC50
T1 construct: purchased Carna Company
In short: (§1)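 Recombinant kinases tested against peptide substrates in 1× kinase buffer, with compound added as a 100-fold DMSO stock. Top concentration 1, 10 or 30 μM, 3-fold dilutions over 10 points, in duplicate. Substrate conversion read by Caliper EZ Reader, normalised to no-enzyme and no-compound controls, and IC50 fitted with a variable-slope log(inhibitor)–response model.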

CDK7 = target: T2, CDK7 (Homo sapiens, UniProt P50613); details: read-out: CDK7 (nM) inhibitory IC50
T2 construct: purchased Carna Company
T2 sequence (P50613 whole entry): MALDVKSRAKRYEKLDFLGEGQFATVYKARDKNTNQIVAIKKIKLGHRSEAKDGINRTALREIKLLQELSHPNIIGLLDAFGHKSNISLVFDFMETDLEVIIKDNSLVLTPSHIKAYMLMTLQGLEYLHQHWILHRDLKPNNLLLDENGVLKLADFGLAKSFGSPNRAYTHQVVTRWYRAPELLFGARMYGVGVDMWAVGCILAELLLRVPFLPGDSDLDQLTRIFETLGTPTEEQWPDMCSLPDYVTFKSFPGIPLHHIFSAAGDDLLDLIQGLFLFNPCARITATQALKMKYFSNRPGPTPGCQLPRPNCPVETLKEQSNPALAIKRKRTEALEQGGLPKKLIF
T2 sequence (P51946 whole entry partner): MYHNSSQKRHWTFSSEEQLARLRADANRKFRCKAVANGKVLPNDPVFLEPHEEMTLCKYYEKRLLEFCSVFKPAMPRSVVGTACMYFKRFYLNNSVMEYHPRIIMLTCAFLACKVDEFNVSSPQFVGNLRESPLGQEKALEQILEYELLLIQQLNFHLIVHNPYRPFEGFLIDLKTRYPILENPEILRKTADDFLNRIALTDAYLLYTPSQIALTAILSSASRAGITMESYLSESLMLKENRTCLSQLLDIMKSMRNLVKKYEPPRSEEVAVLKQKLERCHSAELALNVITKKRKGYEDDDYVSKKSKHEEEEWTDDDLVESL
T2 sequence (P51948 whole entry partner): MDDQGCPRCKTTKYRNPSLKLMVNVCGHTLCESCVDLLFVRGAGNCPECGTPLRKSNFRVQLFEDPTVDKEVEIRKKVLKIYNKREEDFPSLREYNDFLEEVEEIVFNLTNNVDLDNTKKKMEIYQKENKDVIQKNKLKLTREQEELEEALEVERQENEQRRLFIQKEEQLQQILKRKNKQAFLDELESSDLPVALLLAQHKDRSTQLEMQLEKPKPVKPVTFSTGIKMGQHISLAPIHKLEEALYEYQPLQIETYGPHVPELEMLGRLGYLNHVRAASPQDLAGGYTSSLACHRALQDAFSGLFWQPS
In short: as §1

CDK9 = target: T3, CDK9 (Homo sapiens, UniProt P50750); details: read-out: CDK9 (nM) inhibitory IC50
T3 construct: purchased Carna Company
T3 sequence (P50750 whole entry): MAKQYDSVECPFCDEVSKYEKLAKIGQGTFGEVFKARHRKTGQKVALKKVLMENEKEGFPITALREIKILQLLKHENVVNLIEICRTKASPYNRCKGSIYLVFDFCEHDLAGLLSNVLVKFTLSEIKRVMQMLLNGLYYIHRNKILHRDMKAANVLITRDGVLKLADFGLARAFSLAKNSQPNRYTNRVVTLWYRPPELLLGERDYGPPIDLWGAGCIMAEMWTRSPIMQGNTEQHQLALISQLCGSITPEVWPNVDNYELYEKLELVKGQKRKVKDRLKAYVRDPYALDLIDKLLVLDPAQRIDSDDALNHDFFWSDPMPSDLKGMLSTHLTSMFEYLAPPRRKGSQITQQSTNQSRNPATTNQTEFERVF
T3 sequence (O60563 whole entry partner): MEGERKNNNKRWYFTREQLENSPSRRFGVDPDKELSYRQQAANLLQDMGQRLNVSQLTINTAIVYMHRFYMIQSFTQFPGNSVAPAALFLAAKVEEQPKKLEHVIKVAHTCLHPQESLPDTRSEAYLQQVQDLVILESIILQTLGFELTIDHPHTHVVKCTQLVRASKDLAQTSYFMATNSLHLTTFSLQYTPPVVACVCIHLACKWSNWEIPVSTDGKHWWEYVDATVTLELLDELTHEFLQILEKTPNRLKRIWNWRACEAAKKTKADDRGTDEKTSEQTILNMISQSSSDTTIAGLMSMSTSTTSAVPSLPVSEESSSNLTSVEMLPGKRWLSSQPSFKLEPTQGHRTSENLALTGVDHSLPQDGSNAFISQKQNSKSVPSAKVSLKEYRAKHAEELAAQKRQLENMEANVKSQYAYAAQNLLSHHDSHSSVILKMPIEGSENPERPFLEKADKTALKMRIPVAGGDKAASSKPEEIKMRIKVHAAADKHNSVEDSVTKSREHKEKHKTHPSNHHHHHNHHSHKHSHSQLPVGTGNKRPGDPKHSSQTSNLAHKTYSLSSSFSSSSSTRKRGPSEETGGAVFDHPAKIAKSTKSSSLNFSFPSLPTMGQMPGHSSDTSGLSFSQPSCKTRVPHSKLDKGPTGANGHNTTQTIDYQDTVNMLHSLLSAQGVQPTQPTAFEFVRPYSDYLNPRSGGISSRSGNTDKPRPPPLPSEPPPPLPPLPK
In short: as §1

CDK4 = target: T4, CDK4 (Homo sapiens, UniProt P11802); details: read-out: CDK4 (nM) inhibitory IC50
T4 construct: purchased Carna Company
T4 sequence (P11802 whole entry): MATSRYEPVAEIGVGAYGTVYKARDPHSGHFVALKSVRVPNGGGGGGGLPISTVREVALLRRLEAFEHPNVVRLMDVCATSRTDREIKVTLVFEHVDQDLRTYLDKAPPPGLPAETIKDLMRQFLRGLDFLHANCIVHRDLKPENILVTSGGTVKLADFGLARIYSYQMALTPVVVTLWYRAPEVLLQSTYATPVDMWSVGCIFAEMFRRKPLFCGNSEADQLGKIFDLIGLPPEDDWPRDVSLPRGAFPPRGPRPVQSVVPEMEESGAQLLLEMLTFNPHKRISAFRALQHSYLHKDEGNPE
T4 sequence (P30281 whole entry partner): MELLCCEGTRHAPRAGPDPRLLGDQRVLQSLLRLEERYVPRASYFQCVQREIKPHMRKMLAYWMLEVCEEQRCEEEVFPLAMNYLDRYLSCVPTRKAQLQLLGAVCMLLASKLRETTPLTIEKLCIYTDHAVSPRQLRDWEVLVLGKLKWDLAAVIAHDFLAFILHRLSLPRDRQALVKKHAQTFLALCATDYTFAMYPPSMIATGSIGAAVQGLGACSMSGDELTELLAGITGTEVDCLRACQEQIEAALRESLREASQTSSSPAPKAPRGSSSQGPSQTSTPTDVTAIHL
In short: as §1

CDK2 = target: T5, CDK2 (Homo sapiens, UniProt P24941); details: read-out: CDK2 (nM) inhibitory IC50
T5 construct: purchased Carna Company
In short: as §1

CDK6 = target: T6, CDK6 (Homo sapiens, UniProt Q00534); details: read-out: CDK6 (nM) inhibitory IC50
T6 construct: purchased Carna Company
T6 sequence (Q00534 whole entry): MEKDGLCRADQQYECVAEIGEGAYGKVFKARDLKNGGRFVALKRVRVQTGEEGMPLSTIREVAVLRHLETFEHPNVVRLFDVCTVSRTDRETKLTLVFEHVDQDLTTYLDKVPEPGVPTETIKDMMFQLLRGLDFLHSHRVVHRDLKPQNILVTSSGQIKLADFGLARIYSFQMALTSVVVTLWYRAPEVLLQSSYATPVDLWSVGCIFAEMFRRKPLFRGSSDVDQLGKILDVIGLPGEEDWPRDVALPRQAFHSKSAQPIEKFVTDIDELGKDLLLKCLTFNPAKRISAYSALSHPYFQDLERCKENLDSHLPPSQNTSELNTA
T6 sequence (P30281 whole entry partner): as the sequence (P30281 whole entry partner) above

T1 sequence (P06493 whole entry): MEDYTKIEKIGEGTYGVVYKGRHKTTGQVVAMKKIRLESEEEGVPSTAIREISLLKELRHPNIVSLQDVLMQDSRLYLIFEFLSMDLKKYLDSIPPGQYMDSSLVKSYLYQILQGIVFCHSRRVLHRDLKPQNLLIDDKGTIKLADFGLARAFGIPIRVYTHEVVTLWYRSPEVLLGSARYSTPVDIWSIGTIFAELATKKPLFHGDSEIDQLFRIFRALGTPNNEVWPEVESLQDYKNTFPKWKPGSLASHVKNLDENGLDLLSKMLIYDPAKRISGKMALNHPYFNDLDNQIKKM
T1 sequence (P14635 whole entry partner): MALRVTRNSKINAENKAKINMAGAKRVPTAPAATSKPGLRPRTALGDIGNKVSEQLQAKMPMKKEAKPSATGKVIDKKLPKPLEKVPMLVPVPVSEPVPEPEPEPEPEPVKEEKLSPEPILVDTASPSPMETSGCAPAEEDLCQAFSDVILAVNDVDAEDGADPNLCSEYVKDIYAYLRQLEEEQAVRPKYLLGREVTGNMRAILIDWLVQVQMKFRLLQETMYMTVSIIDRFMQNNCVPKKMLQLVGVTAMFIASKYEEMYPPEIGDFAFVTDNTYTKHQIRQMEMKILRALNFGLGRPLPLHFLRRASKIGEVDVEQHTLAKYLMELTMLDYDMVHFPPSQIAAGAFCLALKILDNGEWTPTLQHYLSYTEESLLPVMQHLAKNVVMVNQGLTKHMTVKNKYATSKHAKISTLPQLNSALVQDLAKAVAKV

Structure (SMILES)	IC50 (CDK1)	IC50 (CDK7)	IC50 (CDK9)	IC50 (CDK4)	IC50 (CDK2)	IC50 (CDK6)
Cn1cc(-c2ccc(S(=O)(=O)N3CCC(Nc4ncc(C#N)c(N[C@H]5CCOC5)n4)CC3)cc2)cn1 [Example 8, (S)-2-((1-((4-(1-Methyl-1H-pyrazol-4-yl)phenyl)sulfonyl)piperidin-4-yl)amino)-4-((tetrahydrofuran-3-yl)amino)pyrimidine-5-carbonitrile]	10 to 50 nM	50 to 100 nM	100 to 1000 nM	2.5 to 10 nM	0.5 to 2.5 nM	0.5 to 2.5 nM
CS(=O)(=O)N1CCC(Nc2ncc(C(F)(F)F)c(NC3CCCC3)n2)CC1 [Example 5, N^4-Cyclopentyl-N^2-(1-(methylsulfonyl)piperidin-4-yl)-5-(trifluoromethyl)pyrimidine-2,4-diamine]	100 to 1000 nM	10 to 50 nM	100 to 1000 nM	10 to 50 nM	2.5 to 10 nM	10 to 50 nM
N#Cc1cnc(NC2CCN(S(=O)(=O)c3ccc(C4=CCNCC4)cc3)CC2)nc1NC1CCCC1 [Example 15, 4-(Cyclopentylamino)-2-((1-((4-(1,2,3,6-tetrahydropyridin-4-yl)phenyl)sulfonyl)piperidin-4-yl)amino)pyrimidine-5-carbonitrile]	10 to 50 nM	10 to 50 nM	100 to 1000 nM	0.5 to 2.5 nM	0.5 to 2.5 nM	0.5 to 2.5 nM
O=S(=O)(c1ccc([C@@H]2CCNC2)cc1)N1CCC(Nc2ncc(C(F)(F)F)c(O[C@H]3CCOC3)n2)CC1 (single isomer, unassigned) [Compound 151]	10 to 50 nM	10 to 50 nM	100 to 1000 nM	0.5 to 2.5 nM	0.5 to 2.5 nM	0.5 to 2.5 nM
CC1(O)CCN(c2ccc(S(=O)(=O)N3CCC(Nc4ncc(C(F)(F)F)c(O[C@H]5CCOC5)n4)CC3)cc2)CC1 [Compound 133]	2.5 to 10 nM	10 to 50 nM	50 to 100 nM	0.5 to 2.5 nM	< 0.5 nM	0.5 to 2.5 nM
O=S(=O)(c1ccc([C@@H]2CCCNC2)cc1)N1CCC(Nc2ncc(C(F)(F)F)c(O[C@H]3CCOC3)n2)CC1 (single isomer, unassigned) [Example 114]	2.5 to 10 nM	2.5 to 10 nM	100 to 1000 nM	0.5 to 2.5 nM	< 0.5 nM	0.5 to 2.5 nM
O=S(=O)(c1ccc(C2CNC2)cc1)N1CCC(Nc2ncc(C(F)(F)F)c(O[C@H]3CCOC3)n2)CC1 [Compound 131]	2.5 to 10 nM	2.5 to 10 nM	100 to 1000 nM	0.5 to 2.5 nM	< 0.5 nM	0.5 to 2.5 nM
O=S(=O)(c1ccc([C@H]2CCCNC2)cc1)N1CCC(Nc2ncc(C(F)(F)F)c(O[C@H]3CCOC3)n2)CC1 (single isomer, unassigned) [Example 115]	2.5 to 10 nM	2.5 to 10 nM	100 to 1000 nM	0.5 to 2.5 nM	< 0.5 nM	0.5 to 2.5 nM
CN(C)CCN(c1nc(NC2CCN(S(=O)(=O)c3cnn(C)c3)CC2)ncc1C#N)C1CCCC1 [Compound 148]	100 to 1000 nM	100 to 1000 nM	> 1000 nM	100 to 1000 nM	10 to 50 nM	100 to 1000 nM
C[C@H]1CN(c2ccc(S(=O)(=O)N3CCC(Nc4ncc(C(F)(F)F)c(O[C@H]5CCOC5)n4)CC3)cc2)C[C@H](C)N1 [Example 168]	2.5 to 10 nM	2.5 to 10 nM	100 to 1000 nM	0.5 to 2.5 nM	< 0.5 nM	< 0.5 nM
O=S(=O)(c1ccc(C2=CCNC2)cc1)N1CCC(Nc2ncc(C(F)(F)F)c(O[C@H]3CCOC3)n2)CC1 [Compound 146]	2.5 to 10 nM	2.5 to 10 nM	100 to 1000 nM	0.5 to 2.5 nM	< 0.5 nM	0.5 to 2.5 nM
O=S(=O)(c1ccc(N2CC[C@H](O)C2)cc1)N1CCC(Nc2ncc(C(F)(F)F)c(O[C@H]3CCOC3)n2)CC1 [Compound 141]	2.5 to 10 nM	10 to 50 nM	100 to 1000 nM	0.5 to 2.5 nM	< 0.5 nM	0.5 to 2.5 nM
Cn1cc(S(=O)(=O)N2CCC(Nc3ncc(C#N)c(N[C@H]4CCOC4)n3)CC2)cn1 [Compound 44]	100 to 1000 nM	100 to 1000 nM	> 1000 nM	50 to 100 nM	2.5 to 10 nM	50 to 100 nM
O=S(=O)(c1ccc(C2=CCNCC2)cc1)N1CCC(Nc2ncc(C(F)(F)F)c(O[C@H]3CCOC3)n2)CC1 [Example 100, (S)-4-((Tetrahydrofuran-3-yl)oxy)-N-(1-((4-(1,2,3,6-tetrahydropyridin-4-yl)phenyl)sulfonyl)piperidin-4-yl)-5-(trifluoromethyl)pyrimidin-2-amine]	2.5 to 10 nM	2.5 to 10 nM	100 to 1000 nM	0.5 to 2.5 nM	< 0.5 nM	0.5 to 2.5 nM
O=S(=O)(c1cnn(CCO)c1)N1CCC(Nc2ncc(C(F)(F)F)c(O[C@H]3CCOC3)n2)CC1 [Example 27]	2.5 to 10 nM	10 to 50 nM	100 to 1000 nM	2.5 to 10 nM	< 0.5 nM	10 to 50 nM
Cn1cc(S(=O)(=O)N2CCC(Nc3ncc(C#N)c(NC4CCCC4)n3)CC2)cn1 [Compound 31]	50 to 100 nM	100 to 1000 nM	100 to 1000 nM	2.5 to 10 nM	0.5 to 2.5 nM	0.5 to 2.5 nM
Cn1cc(S(=O)(=O)N2CCC(Nc3ncc(C(F)(F)F)c(O[C@H]4CCOC4)n3)CC2)cn1 [Example 7, (S)—N-(1-((1-Methyl-1H-pyrazol-4-yl)sulfonyl)piperidin-4-yl)-4-((tetrahydrofuran-3-yl)oxy)-5-(trifluoromethyl)pyrimidin-2-amine]	10 to 50 nM	10 to 50 nM	100 to 1000 nM	10 to 50 nM	0.5 to 2.5 nM	10 to 50 nM
O=S(=O)(c1ccc(N2CCNCC2)nc1)N1CCC(Nc2ncc(C(F)(F)F)c(O[C@H]3CCOC3)n2)CC1 [Compound 153]	2.5 to 10 nM	2.5 to 10 nM	100 to 1000 nM	0.5 to 2.5 nM	< 0.5 nM	0.5 to 2.5 nM
Cc1cc(S(=O)(=O)N2CCC(Nc3ncc(C(F)(F)F)c(O[C@H]4CCOC4)n3)CC2)ccc1C1=CCNCC1 [Compound 154]	10 to 50 nM	10 to 50 nM	100 to 1000 nM	0.5 to 2.5 nM	0.5 to 2.5 nM	0.5 to 2.5 nM
O=S(=O)(c1ccc(N2CC3(CNC3)C2)cc1)N1CCC(Nc2ncc(C(F)(F)F)c(O[C@H]3CCOC3)n2)CC1 [Compound 144]	2.5 to 10 nM	2.5 to 10 nM	100 to 1000 nM	0.5 to 2.5 nM	< 0.5 nM	0.5 to 2.5 nM
Cn1cnc(S(=O)(=O)N2CCC(Nc3ncc(C#N)c(NC4CCCC4)n3)CC2)c1 [Compound 34]	10 to 50 nM	100 to 1000 nM	100 to 1000 nM	2.5 to 10 nM	0.5 to 2.5 nM	10 to 50 nM
O=S(=O)(c1ccc([C@H]2CCNC2)cc1)N1CCC(Nc2ncc(C(F)(F)F)c(O[C@H]3CCOC3)n2)CC1 (single isomer, unassigned) [Compound 152]	2.5 to 10 nM	10 to 50 nM	100 to 1000 nM	0.5 to 2.5 nM	0.5 to 2.5 nM	0.5 to 2.5 nM
C[C@@H]1CN(c2ccc(S(=O)(=O)N3CCC(Nc4ncc(C(F)(F)F)c(O[C@H]5CCOC5)n4)CC3)cn2)C[C@H](C)N1 [Example 117]	2.5 to 10 nM	2.5 to 10 nM	100 to 1000 nM	< 0.5 nM	< 0.5 nM	0.5 to 2.5 nM
O=S(=O)(c1ccc(N2CCNC(C(F)(F)F)C2)cc1)N1CCC(Nc2ncc(C(F)(F)F)c(O[C@H]3CCOC3)n2)CC1 (stereo partly drawn) [Compound 147]	2.5 to 10 nM	10 to 50 nM	50 to 100 nM	0.5 to 2.5 nM	0.5 to 2.5 nM	0.5 to 2.5 nM
O=S(=O)(c1ccc(C2=CCCNC2)cc1)N1CCC(Nc2ncc(C(F)(F)F)c(O[C@H]3CCOC3)n2)CC1 [Example 112, (S)-4-((Tetrahydrofuran-3-yl)oxy)-N-(1-((4-(1,2,5,6-tetrahydropyridin-3-yl)phenyl)sulfonyl)piperidin-4-yl)-5-(trifluoromethyl)pyrimidin-2-amine]	2.5 to 10 nM	2.5 to 10 nM	100 to 1000 nM	0.5 to 2.5 nM	< 0.5 nM	0.5 to 2.5 nM
O=S(=O)(c1ccc(C2CCNCC2)c(F)c1)N1CCC(Nc2ncc(C(F)(F)F)c(O[C@H]3CCOC3)n2)CC1 [Compound 122]	10 to 50 nM	10 to 50 nM	100 to 1000 nM	0.5 to 2.5 nM	< 0.5 nM	0.5 to 2.5 nM
O=S(=O)(c1ccc(N2CCNCC2)cc1)N1CCC(Nc2ncc(C(F)(F)F)c(O[C@H]3CCOC3)n2)CC1 [Example 116]	2.5 to 10 nM	10 to 50 nM	100 to 1000 nM	0.5 to 2.5 nM	< 0.5 nM	0.5 to 2.5 nM
Cn1cc(-c2ccc(S(=O)(=O)N3CCC(Nc4ncc(C(F)(F)F)c(O[C@H]5CCOC5)n4)CC3)cc2)cn1 [Compound 142]	0.5 to 2.5 nM	2.5 to 10 nM	10 to 50 nM	0.5 to 2.5 nM	< 0.5 nM	0.5 to 2.5 nM
